Measurements: patent US5618675A, “Methods and compositions for detecting lipopolysaccharides using CAP18 fragments” (Panorama Research, Inc., dated 1997)
Several values for one entry are separate records, joined by “and”; a condition that tells them apart may be missing. Equal entries are not always repeated.

Legend:
RAW 264.7 cells = format: cell-based, murine; conditions: for Inhibition of LPS-induced RNI-IC50: LPS-induced (2.5 ng/ml LPS in FIG. 6B)
Protocol: From the sequence of the CAP18 cDNA, it was apparent that the putative N-terminal peptide of CAP18 was in fact an internal fragment of the CAP18 protein. We therefore tried to reconfirm the original protein sequence. Neutrophil-derived heparin bound cationic proteins were prepared as described above and applied to a C18 reverse phase HPLC (FIG. 1). We sequenced the major peaks. Peaks at fractions 14.5 and 15.2 correspond to defensins MCP1 and MCP2 (Territo et al. (1989) J. Clin. Invest. 84:2017-2019), respectively. Fraction 25.8 is macrophage related protein 14 (MRP14) (Odink et al. (1987) Nature 330:80-82). The fraction at 20.3 minutes corresponds to a fragment of CAP18 of approximately 4-5 kD. […] The murine macrophage cell line RAW 264.7 (obtained from ATCC) and thioglycolate-elicited murine peritoneal exudate cells are used to produce RNI. Cells are cultured at 1×10^6 /ml. in RPMI-1640 +2.5% FCS in 24 well plates in the presence or absence of different concentrations of LPS or murine rlFNγ. After 24 hr. incubation at 37° C. the cell free supernatant is collected and tested for the presence of RNI. Accumulation of nitrite in the medium is measured by a colorimetric assay based on the Griess reaction (Green et al. (1982) Anal. Biochem. 126:11) using sodium nitrite as standards. Sample (50 μl) is mixed with 50 μl of Griess reagent (1% sulfanilamide, 0.1% naphthalene diamine dihydrochloride, 2.5% H3 PO4) and after 10 min. at room temperature absorbance is read at 570 nm.

[1] = system: Salmonella minnesota ReLPS sensitized sheep erythrocytes; experiment: LPS hemagglutination assay (MAC); format: binding
Protocol: For hemagglutination assays, erythrocytes were sensitized with LPS as follows. One ml of 1% erythrocyte suspension (human 0 type, C3H/HeN mouse or sheep) was mixed with 0.2 ml of LPS solution and incubated at 37° C. for 30 min, followed by washing with phosphate buffered saline (PBS), and then the concentration of suspension was adjusted to 1.0%. In the case of S-LPS, the solution was heated at 100° C. for 1 hour before sensitization of erythrocytes. […] Activity of CAP was expressed as a minimum agglutinating concentration (MAC) of CAP. According to the method of Kirikae et al. (1986) Microbiol. Immunol. 30:269-274, 50 μl of 2-fold serial dilution of Re-LPS was added to 50 μl of 1.0% rabbit erythrocyte suspension, and incubated at 37° C. for 3, hour. Minimum agglutinating concentration of Re-LPS was expressed as 1 HA unit.

Salmonella minnesota Re = experiment: Antibacterial CFU assay; conditions: FIG. 6C
Salmonella typhimurium = experiment: Antibacterial CFU assay
[2] = system: thioglycolate-stimulated murine peritoneal macrophages; experiment: LPS-induced tissue factor generation by macrophages; format: cell-based; conditions: peptide 1 μg/ml; 6 hr; FIG. 12
Protocol: […] Cells were cultured for 6 hours prior to assay of tissue factor by clotting assay.
[…] Production of tissue factor after 6 hr. was measured by clotting assay. […] In the absence of LPS no tissue factor is synthesized by these cells.

cells = experiment: Effect of CAP-37 on LPS-induced tissue factor generation; format: cell-based; conditions: for Tissue factor, figure in parentheses (relative to control = 1.0) / Tissue Factor / Activity: CAP-37 15 HA; for Activity: LPS alone = 100
Protocol: Table 6 presents a comparison of the effect of RNIP, CAP18, and defensins HP-1 and HP-2 (Territo et al. (1989) J. Clin. Invest. 84:2017-2019) on LPS-induced tissue factor generation. Tissue factor assays were performed as follows. Mouse peritoneal cells were elicted with an intraperitoneal injection of thioglycolate medium and harvested 5-days later by irrigation with pyrogen-free saline. The cells were washed with RPMI 1640 medium, counted and resuspended at a concentration of 1.5-2.0×10^6 /ml in serum-free RPMI medium containing glutamine (0.29 mg/ml), penicillin (50 units/ml) and streptomycin (50/ml). Adherent cells were prepared by incubating 10 ml of a cell suspension (in RPMI 1640 media in sterile culture bottle (Nunclon, 50 ml, Inter Med) for 60 min. at 37° C. in a 5% CO2 atmosphere. The plastic adherent cells were recovered by scraping of the bottle with a sterile rubber policeman. The adherent cells were then washed twice with RPMI media, resuspended in serum-free medium (1×10^6 /ml) in culture tube (Nunc cryotube, Inter Med), and stimulated with graded doses of LPS for 6 hr. at 37° C. in a 5% CO2. The cell suspension was centrifuged and cell pellet was frozen at -80° C. until clotting assays were run.
Veronal buffered saline (VBS) was added to the cell pellet, lysed by 3 cycles of freeze/thaw and sonicated for 10 sec with a hand-held sonicator microbe (Handy Sonic, model UR-20P, Tomy Seiko LTD, Tokyo). Tissue factor activity was tested in modified unactivated partial thromboplastin time (7). One tenth ml of cell lysate (1×10^6 /ml) was preincubated with mouse plasma at 37° C. for 3 min. Then 0.1 ml of 25 mM-CaCl2 which contains phospholipid was added to the mixture and clotting time was measured using a fibrometer (Bio Quest Division, Becton Dickinson, Cokeysville, USA). A standard curve obtained from serial two-fold dilutions of rabbit brain thromboplastic (Simplastin, Ono Pharmaceutical Co.) was used to transpose tissue factor activity into arbitrary tissue factor units (1 μg/ml) suspension of rabbit brain was assigned a value of 1,000 units).
.dagger. LPS was incubated with CAP37 at 37° C. for 2 hours, and
the mixture was added to cells, then cultured for 6 hours.

purified human factor X [3] = target: T1, purified human factor X (human, UniProt P00742); experiment: cell-based or functional assay
purified human factor Xa = purified human factor Xa (human, UniProt P00742); experiment: cell-based or functional assay
purified human factor X [4] = target: T1, purified human factor X; experiment: cell-based or functional assay; remark: listed apart in the source

## 52-1: synthetic rabbit RNIP-derived fragment, amino acids 143-169 of SEQ ID NO:4 (FRNKIKEKLKKIGQKIQGLLPKLAPRT)
RAW 264.7 cells
  Inhibition of LPS-induced RNI-IC50: > 2 µg/mL
[1]
  Hemagglutination MAC (minimum agglutinating concentration): > 125 µg/mL

## 21-1: synthetic rabbit RNIP-derived fragment, amino acids 135-151 of SEQ ID NO:4 (GLRKRLRKFRNKIKEKL)
RAW 264.7 cells
  Inhibition of LPS-induced RNI-IC50: > 2 µg/mL
[1]
  Hemagglutination MAC (minimum agglutinating concentration): > 125 µg/mL

## 50-2: synthetic rabbit RNIP-derived fragment, amino acids 147-171 of SEQ ID NO:4 (same range printed as 50-1) (IKEKLKKIGQKIQGLLPKLAPRTDY)
Salmonella minnesota Re
  anti-bacterial activity (CFU), words: not active
Salmonella typhimurium; FIG. 6D
  anti-bacterial activity (CFU), words: not active
Salmonella typhimurium; FIG. 6F
  effect on CFU at high concentrations alone and in various combinations: No effect
[2]
  inhibition of LPS induced tissue factor: fail to inhibit
RAW 264.7 cells
  Inhibition of LPS-induced RNI-IC50: 0.3 µg/mL
[1]
  Hemagglutination MAC (minimum agglutinating concentration): > 125 µg/mL

## 52-2: synthetic rabbit RNIP-derived fragment, amino acids 143-170 of SEQ ID NO:4 (FRNKIKEKLKKIGQKIQGLLPKLAPRTD)
RAW 264.7 cells
  Inhibition of LPS-induced RNI-IC50: > 2 µg/mL
[1]
  Hemagglutination MAC (minimum agglutinating concentration): > 125 µg/mL

## 187: synthetic rabbit RNIP-derived fragment, amino acids 151-171 of SEQ ID NO:4 (LKKIGQKIQGLLPKLAPRTDY) [compound 187]
RAW 264.7 cells
  activity in hemagglutination and inhibition of LPS-induced RNI: inactive
  Inhibition of LPS-induced RNI-IC50: > 10 µg/mL
[1]
  Hemagglutination MAC (minimum agglutinating concentration): > 125 µg/mL

## 34-1: synthetic rabbit RNIP-derived fragment, amino acids 140-166 of SEQ ID NO:4 (LRKFRNKIKEKLKKIGQKIQGLLPKLA)
RAW 264.7 cells
  Inhibition of LPS-induced RNI-IC50: > 2 µg/mL
[1]
  Hemagglutination MAC (minimum agglutinating concentration): > 125 µg/mL

## 54-2: synthetic rabbit RNIP-derived fragment, amino acids 139-171 of SEQ ID NO:4 (RLRKFRNKIKEKLKKIGQKIQGLLPKLAPRTDY)
RAW 264.7 cells
  Inhibition of LPS-induced RNI-IC50: > 2 µg/mL
[1]
  Hemagglutination MAC (minimum agglutinating concentration): > 125 µg/mL

## 50-1: synthetic rabbit RNIP-derived fragment, amino acids 147-171 of SEQ ID NO:4 (IKEKLKKIGQKIQGLLPKLAPRTDY)
RAW 264.7 cells
  Inhibition of LPS-induced RNI-IC50: 0.3 µg/mL
[1]
  Hemagglutination MAC (minimum agglutinating concentration): > 125 µg/mL

## 54-1: synthetic rabbit RNIP-derived fragment, amino acids 139-170 of SEQ ID NO:4 (RLRKFRNKIKEKLKKIGQKIQGLLPKLAPRTD)
RAW 264.7 cells
  Inhibition of LPS-induced RNI-IC50: > 2 µg/mL
[1]
  Hemagglutination MAC (minimum agglutinating concentration): > 125 µg/mL

## polymyxin B [reference compound]
RAW 264.7 cells; LPS 5ng/ml, FIG. 4
  inhibition of LPS-induced RNI production: inhibition

## 52-3: synthetic rabbit RNIP-derived fragment, amino acids 132-171 of SEQ ID NO:4 as printed (EPTGLRKRLRKFRNKIKEKLKKIGQKIQGLLPKLAPRTDY)
RAW 264.7 cells
  Inhibition of LPS-induced RNI-IC50: > 2 µg/mL
[1]
  Hemagglutination MAC (minimum agglutinating concentration): > 125 µg/mL

B1: CAP-37: another cationic peptide CAP37 (azurocidin) (Morgan et al. 1991) (protein, UniProt P20160 27-248, looked up)
Azurocidin: IVGGRKARPRQFPFLASIQNQGRHFCGGALIHARFVMTAASCFQSQNPGVSTVVLGAYDLRRRERQSRQTFSISSMSENGYDPQQNLNDLMLLQLDREANLTSSVTILPLPLQNATVEAGTRCQVAGWGSQRSGGRLSRFPRFVNVTVTPEDQCRPNNVCTGVLTRRGGICNGDGGTPLVCEGLAHGVASFSLGPCGRGPDFFTRVALFRDWIDGVLNNPGP
cells
  inhibition of tissue factor generation: unable to inhibit
cells; LPS 0.1 μg/ml
  Tissue factor, figure in parentheses (relative to control = 1.0): 2.3
  Activity: 93.0
cells; LPS 0.1 μg/ml, LPS alone 412 ± 30
  Tissue Factor: 383 ± 307 units/1 × 10^5 cells
cells; LPS 1.0 μg/ml
  Tissue factor, figure in parentheses (relative to control = 1.0): 3.9
  Activity: 93.6
cells; LPS 1.0 μg/ml, LPS alone 692 ± 27
  Tissue Factor: 648 ± 343 units/1 × 10^5 cells
cells; no LPS
  Tissue factor, figure in parentheses (relative to control = 1.0): 1.1
cells; no LPS, control 168 ± 95
  Tissue Factor: 183 ± 67 units/1 × 10^5 cells

B2: synthetic rabbit RNIP peptide 197 (reactive nitrogen inhibitory peptide, C-terminal 37 amino acids of rabbit CAP18) (peptide)
peptide: GLRKRLRKFRNKIKEKLKKIGQKIQGLLPKLAPRTDY
Purified human factor X [3]
  IC50, Russell Viper Venom induced clotting: 0.7 µg/ml and 0.1 µM
Purified human factor Xa
  IC50, Xa-induced clotting: 2.7 µg/ml and 0.5 µM
Prothrombin (factor II)
  IC50, prothrombin activation by factor Xa (synthetic substrate): 50 nM
Purified human factor X [4]
  IC50, RVV activation of factor X to Xa (synthetic substrate): 6.7 µg/ml and 1.1 µM

B3: synthetic rabbit RNIP-derived peptide 36-1 (peptide)
peptide: GLRKRLRKFRNKIKEKLKKIGQKIQGLLPKLA
Purified human factor X [3]
  IC50, Russell Viper Venom induced clotting: 0.9 µg/ml and 0.2 µM
Purified human factor Xa
  IC50, Xa-induced clotting: 2.2 µg/ml and 0.4 µM
Prothrombin (factor II)
  IC50, prothrombin activation by factor Xa (synthetic substrate): < 30 nM
Purified human factor X [4]
  IC50, RVV activation of factor X to Xa (synthetic substrate): 10 µg/ml and 1.9 µM
  IC50, factor X activation by tissue factor and factor VII (synthetic substrate): 100 nM
